Measured values from patent US20100267561A1, “HERBICIDAL PYRIDAZINONE DERIVATIVES” (priority 2007, published 2010).

Experiments:
Assay type in all cases: in vivo
[1] = system: canarygrass (Phalaris minor); assay: Test A pre-/postemergence plant response
In short: (§1)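 Both pre- and postemergence treatment given concurrently; postemergence seedlings measured 2–10 cm at the one- to two-leaf stage. Visual injury, 0–100 scale versus untreated, at ~10 days.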

[2] = system: blackgrass (Alopecurus myosuroides); assay: Test A pre-/postemergence plant response
In short: as §1

[3] = system: corn (Zea mays); assay: Test A pre-/postemergence plant response
In short: as §1

[4] = system: barnyardgrass (Echinochloa crus-galli); assay: Test A pre-/postemergence plant response
In short: as §1

[5] = system: wheat (Triticum aestivum); assay: Test A pre-/postemergence plant response
In short: as §1

[6] = system: giant foxtail (Setaria faberi); assay: Test A pre-/postemergence plant response
In short: as §1

[7] = system: large crabgrass (Digitaria sanguinalis); assay: Test A pre-/postemergence plant response
In short: as §1

[8] = system: pigweed (Amaranthus retroflexus); assay: Test A pre-/postemergence plant response
In short: as §1

[9] = system: rice (Oryza sativa); assay: Test B flooded paddy test plant response
In short: (§2)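 Rice, umbrella sedge, ducksalad and barnyardgrass at 2-leaf stage; pots flooded to 3 cm, compounds applied into paddy water, depth held throughout. Greenhouse 13 to 15 days, then visual rating vs untreated controls on 0–100 scale (0 no effect, 100 complete control); dash means no test result.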

[10] = system: barnyardgrass (Echinochloa crus-galli); assay: Test B flooded paddy test plant response
In short: as §2

[11] = system: umbrella sedge (Cyperus difformis); assay: Test B flooded paddy test plant response
In short: as §2

[12] = system: ducksalad (Heteranthera limosa); assay: Test B flooded paddy test plant response
In short: as §2

[13] = Postemergence, 31 g ai/ha, 0 to 100 scale (0 no effect, 100 complete control)
[14] = Postemergence, 125 g ai/ha, 0 to 100 scale, 0 no effect, 100 complete control
[15] = Preemergence, 31 g ai/ha, 0 to 100 scale, 0 is no effect, 100 is complete control
[16] = Preemergence, 125 g ai/ha, 0 to 100 scale (0 no effect, 100 complete control)
[17] = Flood (flooded paddy test), 250 g ai/ha, scale 0 to 100, 0 no effect, 100 complete control
[18] = Flood, 62 g ai/ha, scale 0 to 100

SMILES | Plant response rating, Canarygrass [1, 13] | Plant response rating, Canarygrass [1, 14] | Plant response rating, Canarygrass [1, 15] | Plant response rating, Canarygrass [1, 16] | Plant response rating, Blackgrass [2, 13] | Plant response rating, Blackgrass [2, 14] | Plant response rating, Blackgrass [2, 15] | Plant response rating, Blackgrass [2, 16] | Plant response rating, Corn [3, 13] | Plant response rating, Corn [3, 14] | Plant response rating, Corn [3, 16] | Plant response rating, Barnyardgrass [4, 13] | Plant response rating, Barnyardgrass [4, 14] | Plant response rating, Barnyardgrass [4, 15] | Plant response rating, Barnyardgrass [4, 16] | Plant response rating, Wheat [5, 13] | Plant response rating, Wheat [5, 14] | Plant response rating, Wheat [5, 15] | Plant response rating, Wheat [5, 16] | Plant response rating, Foxtail, Giant [6, 13] | also measured
Cc1cn(-c2ccc(Cl)cn2)nc1-c1c(O)cnn(C)c1=O [Compound 84] | 0 | 0 | 0 | 0 | 0 | 0 | 0 | 0 | 0 | 0 | 0 | 0 | 0 | 0 | 0 | 0 | 0 | 0 | 0 | 0 | Plant response rating, Corn [3, 15]: 0; Plant response rating, Foxtail, Giant [6, 14]: 10; Plant response rating, Foxtail, Giant [6, 15]: 0; Plant response rating, Foxtail, Giant [6, 16]: 0; Plant response rating, Crabgrass, Large [7, 13]: 0; Plant response rating, Crabgrass, Large [7, 14]: 10; Plant response rating, Crabgrass, Large [7, 15]: 0; Plant response rating, Crabgrass, Large [7, 16]: 0; Plant response rating, Pigweed [8, 13]: 0; Plant response rating, Pigweed [8, 14]: 0; Plant response rating, Pigweed [8, 15]: 0; Plant response rating, Pigweed [8, 16]: 0; Plant response rating, Rice [9, 17]: 0; Plant response rating, Rice [9, 18]: 0; Plant response rating, Barnyardgrass [10, 17]: 0; Plant response rating, Barnyardgrass [10, 18]: 0; Plant response rating, Sedge, Umbrella [11, 17]: 0; Plant response rating, Sedge, Umbrella [11, 18]: 0; Plant response rating, Ducksalad [12, 17]: 0; Plant response rating, Ducksalad [12, 18]: 0
COc1nn(C)c(=O)c(-n2nc(-c3ccc(Br)cc3)cc2C)c1O [Compound 93] | 80 | 100 | 10 | 90 | 90 | 100 | 30 | 100 | 80 | 100 | 60 | 100 | 100 | 20 | 100 | 70 | 80 | 50 | 80 | 100 | Plant response rating, Corn [3, 15]: 30; Plant response rating, Foxtail, Giant [6, 14]: 100; Plant response rating, Foxtail, Giant [6, 15]: 90; Plant response rating, Foxtail, Giant [6, 16]: 100; Plant response rating, Crabgrass, Large [7, 13]: 100; Plant response rating, Crabgrass, Large [7, 14]: 100; Plant response rating, Crabgrass, Large [7, 15]: 20; Plant response rating, Crabgrass, Large [7, 16]: 100; Plant response rating, Pigweed [8, 13]: 0; Plant response rating, Pigweed [8, 14]: 0; Plant response rating, Pigweed [8, 15]: 0; Plant response rating, Pigweed [8, 16]: 0
CCc1cc(-c2ccc(C(F)(F)F)cc2)nn1-c1c(OC(=O)c2ccc(Cl)nc2)cnn(C)c1=O [Compound 94] | 70 | 100 | 70 | 90 | 80 | 100 | 60 | 100 | 100 | 100 | 90 | 100 | 100 | 50 | 100 | 50 | 80 | 50 | 90 | 100 | Plant response rating, Foxtail, Giant [6, 14]: 100; Plant response rating, Foxtail, Giant [6, 15]: 90; Plant response rating, Foxtail, Giant [6, 16]: 100; Plant response rating, Crabgrass, Large [7, 13]: 90; Plant response rating, Crabgrass, Large [7, 14]: 100; Plant response rating, Crabgrass, Large [7, 15]: 70; Plant response rating, Crabgrass, Large [7, 16]: 100; Plant response rating, Pigweed [8, 13]: 0; Plant response rating, Pigweed [8, 14]: 0; Plant response rating, Pigweed [8, 15]: 0; Plant response rating, Pigweed [8, 16]: 0
CCc1cc(-c2ccc(C(F)(F)F)cc2)nn1-c1c(OC(=O)C2CCCCC2)cnn(C)c1=O [Compound 95] | 90 | 100 | 70 | 100 | 70 | 100 | 90 | 100 | 90 | 100 | 90 | 100 | 100 | 50 | 100 | 70 | 80 | 80 | 90 | 100 | Plant response rating, Corn [3, 15]: 40; Plant response rating, Foxtail, Giant [6, 14]: 100; Plant response rating, Foxtail, Giant [6, 15]: 100; Plant response rating, Foxtail, Giant [6, 16]: 100; Plant response rating, Crabgrass, Large [7, 13]: 90; Plant response rating, Crabgrass, Large [7, 14]: 100; Plant response rating, Crabgrass, Large [7, 15]: 90; Plant response rating, Crabgrass, Large [7, 16]: 100; Plant response rating, Pigweed [8, 13]: 0; Plant response rating, Pigweed [8, 14]: 0; Plant response rating, Pigweed [8, 15]: 0; Plant response rating, Pigweed [8, 16]: 0
